In patent US20080004310A1, “LYOPHILIZED PHARMACEUTICAL COMPOSITION” (priority 2006, published 2008):
Structures can show the parent of a compound that is named as a salt. Where two headings read alike, the source gives them in different places.

Columns and labels:
[1] = Accelerated aging of lyophilized composition (assay of active components after reconstitution); format: physicochemical; conditions: accelerated conditions 40° C./75% RH
Experimental: Aliquots of the clear solution (3 ml) were filtered through a sterilizing 0.22 um filter into lyophilization vials (5 ml). The filled lyophilization vials were topped, but not sealed, with lyophilization stoppers and freeze-dried according the following procedure. The topped vials were placed into a commercial freeze-drier. The temperature of the drier was lowered to about −40° C. and maintained at that temperature for at least 6 hours. […] Following the three temperature increasing steps, the vials were sealed under vacuum, the freeze-drier was returned to normal atmospheric pressure, and the vials were removed from the freeze-drier. In accelerated aging conditions, the active components of the lyophilized compositions of the present invention have an extended shelf live of as much as 120 days. The accelerated aging data for one, three, and four weeks is set out in Table 1. In Table 1, each week of accelerated aging corresponds to about one month of normal aging. [table]

[2] = tested on: patient with erectile dysfunction; assay: Treatment of a patient having erectile dysfunction by injection of the reconstituted lyophilized composition; format: in vivo; conditions: for treatment effect on erectile dysfunction: general method of treatment of Example 3, single lyophilized agent only
Description: In one embodiment, a lyophilized composition may be used to treat a patient having erectile dysfunction. The lyophilized composition is formed by first providing an erectile inducing amount of at least one lyophilized compound selected from papverine hydrochloride, phentolamine mesylate, and alprostadil. The lyophilized composition is then reconstituted with a pharmaceutically acceptable solvent, such as sterilized water, to produce a reconstituted pharmaceutical solution. The reconstituted pharmaceutical solution is then administered to the patient. Once the lyophilized compounds are reconstituted, the reconstituted pharmaceutical solution may be administered to the patient by a variety of methods, including, but not limited to orally or by injection. In one embodiment, the composition is administered by injection. Any suitable method of injection, such as intracavernosal, intravenous, intraarterial, intramuscular, intraperitoneal, intraportal, intradermal or subcutaneous may be used.
A person, 75 kilogram (kg) […] patient is diagnosed with having erectile dysfunction. The patient is instructed to inject the lypholized preparation of 30 mg/ml papaverine, 1.0 mg/ml phentolamine mesylate, and 10 μg/ml alprostadil on a daily basis, if this is the intended frequency of sexual activity. The lyophilized papaverine, phentolamine, and alprostadil are prepared according to Example 1. The patient is examined after one month.
A 70 kg patient is apparently in good health. They present complaints of a loss of sexual desire and frequent erectile dysfunction. They report that although they are periodically interested in initiating sexual relations, on most occasions they are unable to maintain a high level of interest sufficiently long to initiate or to adequately respond to their spouse's initiating sexual activity. […] 1.0 mg/ml of lyophilized phentolamine is given to […]. The reconstituted phentolamine is injected about 0.5 hours before the patient intended to engage in sexual activity. The patient is examined after one month. They report that they take the drug combination 2-3 times per week.
Following the general method of treatment described in Example 3, non-critical variations are made to the composition of Example 3 such that only 10 μg/ml of lyophilized alprostadil is used.
Following the general method of treatment described in Example 3, non-critical variations are made to the composition of Example 3 such that only 30 mg/ml of lyophilized papaverine hydrochloride is used.

[3] = general solubility, not lyophilized; cited from earlier work
[4] = Week One, each week about one month of normal aging

| SMILES | % of Expected ([1]; Week Four) [%] | Assayed Conc. ([1]; Week Four) [mg/mL] | % of Expected ([1]; Week One) [%] | Assayed Conc. ([1]; Week One) [mg/mL] | % of Expected ([1]; Week Three) [%] | Assayed Conc. ([1]; Week Three) | treatment effect on erectile dysfunction [2] | solubility (physchem) [mg/mL] | solubility [3] | Assayed Conc. [1, 4] [mg/mL] | maintenance of erection ([2]; 70 kg patient, 1.0 mg/ml, injected about 0.5 hours before sexual activity, 2-3 times per week, examined after one month) | sexual desire / motivation ([2]; 70 kg patient, 1.0 mg/ml, injected about 0.5 hours before sexual activity, examined after one month) |
| --- | --- | --- | --- | --- | --- | --- | --- | --- | --- | --- | --- | --- |
| CCCCC[C@H](O)/C=C/[C@H]1[C@H](O)CC(=O)[C@@H]1CCCCCCC(=O)O [Alprostadil, alprostadil] | 95 | 0.0095 | 105 | 0.0105 | 100 | 0.01 mg/mL | same positive treatment effect | – | – | – | – | – |
| COc1ccc(Cc2nccc3cc(OC)c(OC)cc23)cc1OC [Papaverine HCl, papaverine hydrochloride] | 78 | 23.4 | 65.7 | – | 67.7 | 20.3 mg/mL | same positive treatment effect | ~90 | about 30 mg/ml | 19.7 | – | – |
| Cc1ccc(N(CC2=NCCN2)c2cccc(O)c2)cc1 [Phentolamine Mesylate, phentolamine mesylate] | 100 | 1.0 | 100 | – | 92 | .92 mg/mL | – | – | – | 1.0 | no difficulty maintaining an erection to completion of sexual intercourse | feels motivated to initiate sexual activity |
